The text below walks through data of ChEMBL document CHEMBL1671668, “Is the recommended dose of efavirenz optimal in young West African human immunodeficiency virus-infected children?” (Antimicrob Agents Chemother, 2009).

Data set [1] in a line: Cmax in HIV-1 infected children at 10 to 15 mg/kg, po administered once daily by HPLC. Also on record: dose 10-15 mg/kg, route oral. The note with it: human, in vivo. It counts as ADME, organism-based.
Data set [2] is described as follows: Apparent oral clearance in HIV-1 infected children at 13.3 mg/kg, po administered once daily by HPLC. More on the design: dose 13.3 mg/kg, route oral. The conditions noted are these: human, in vivo. It counts as ADME, organism-based.
The subject of data set [3] is Homo sapiens. In words: AUC (0 to t) in HIV-1 infected children at 14.4 mg/kg, po administered once daily by HPLC. Format: ADME, organism-based, Plasma. Also on record: dose 14.4 mg/kg, route oral. The conditions noted are these: in vivo.
Data set [4] can be described thus: Cmax in HIV-1 infected children at 14.4 mg/kg, po administered once daily by HPLC. The note with it: human, in vivo. Also on record: dose 14.4 mg/kg, route oral. Format: ADME, organism-based.
Data set [5] in a line: Cmax in HIV-1 infected children at 12 mg/kg, po administered once daily by HPLC. Also on record: dose 12 mg/kg, route oral. The note with it: human, in vivo. It counts as ADME, organism-based.
Data set [6] relates to Homo sapiens. In words: AUC (0 to t) in HIV-1 infected children at 10 to 15 mg/kg, po administered once daily by HPLC. Format: ADME, organism-based, Plasma. More on the design: dose 10-15 mg/kg, route oral. The note with it: in vivo.
Data set [7] is described as follows: Apparent oral clearance in HIV-1 infected children at 14.4 mg/kg, po administered once daily by HPLC. Format: ADME, organism-based. Also on record: dose 14.4 mg/kg, route oral. The note with it: human, in vivo.
A short description of data set [8]: Apparent oral clearance in HIV-1 infected children at 12 mg/kg, po administered once daily by HPLC. Format: ADME, organism-based. The note with it: human, in vivo. Also on record: dose 12 mg/kg, route oral.
In data set [9] the test system is Human immunodeficiency virus 1. Nature of the data set: Antiviral activity against HIV1 infected in children assessed as decrease in viral burden at 14.4 mg/kg once daily measured after 3 months. Format: functional.
Data set [10] deals with Homo sapiens. Nature of the data set: AUC (0 to t) in HIV-1 infected children at 12 mg/kg, po administered once daily by HPLC. Format: ADME, organism-based, Plasma. Also on record: dose 12 mg/kg, route oral. The conditions noted are these: in vivo.

Molecules are shown by their SMILES.

Usually Cmax stands for the highest concentration seen after dosing. In general, CL/F refers to the apparent clearance, not corrected for the fraction that reaches the circulation. Broadly, the AUC is the area under the concentration-time curve, a measure of exposure.

For `O=C1Nc2ccc(Cl)cc2[C@@](C#CC2CC2)(C(F)(F)F)O1` [EFAVIRENZ], the peak concentration (Cmax) in data set [1] was found to be 5520 ng/mL; in data set [4], 3710 ng/mL; in data set [5], 4090 ng/mL. For the same compound, the CL/F in data set [2] was 5 mL/min/kg; in [7], 3.5 mL/min/kg; in data set [8], 3.17 mL/min/kg. For the same compound, the values for the AUC with Homo sapiens [3], in the data set with Homo sapiens [6] and in the data set with Homo sapiens [10] were 65200 ng·h/mL, 63600 ng·h/mL and 60000 ng·h/mL, respectively. Further, the “fold change (FC)” value in data set [9] is recorded as 2.5.
